Columns and labels:
D(1A) dopamine receptor = D(1A) dopamine receptor (Homo sapiens, UniProt P21728); assay: Displacement […] from human cloned dopamine D1 receptor
D(2) dopamine receptor = D(2) dopamine receptor (Homo sapiens, UniProt P14416); assay: Displacement […] from human cloned dopamine D2L receptor
[1] = molecular target: 5-hydroxytryptamine receptor 2A (Sus scrofa, UniProt P50129); assay: (§1) Antagonist activity at serotonin 5HT2A receptor assessed as effect on 5HT-induced isometric contractile force in isolated rings of pig coronary artery; assay type: functional, tissue-based; details: read-out: pA2 (converted)
Sequence of 5-hydroxytryptamine receptor 2A (P50129 whole entry): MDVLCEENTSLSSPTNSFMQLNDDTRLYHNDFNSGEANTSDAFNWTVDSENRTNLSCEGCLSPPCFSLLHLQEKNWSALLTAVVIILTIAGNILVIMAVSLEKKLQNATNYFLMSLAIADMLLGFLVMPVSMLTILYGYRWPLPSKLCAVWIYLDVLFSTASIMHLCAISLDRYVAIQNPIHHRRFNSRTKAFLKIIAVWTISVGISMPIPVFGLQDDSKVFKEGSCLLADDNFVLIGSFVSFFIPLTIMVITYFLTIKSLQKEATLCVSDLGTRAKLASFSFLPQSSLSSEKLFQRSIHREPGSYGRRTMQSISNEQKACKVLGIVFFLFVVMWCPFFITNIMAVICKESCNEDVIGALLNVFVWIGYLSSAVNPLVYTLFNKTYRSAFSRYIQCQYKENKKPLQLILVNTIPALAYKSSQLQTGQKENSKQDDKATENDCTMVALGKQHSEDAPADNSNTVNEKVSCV

[2] = molecular target: 5-hydroxytryptamine receptor 2A (Sus scrofa) (UniProt P50129); assay: as §1; assay type: functional, tissue-based
Sequence of 5-hydroxytryptamine receptor 2A (Sus scrofa) (P50129 whole entry): as above

Sequence of D(2) dopamine receptor (P14416 whole entry): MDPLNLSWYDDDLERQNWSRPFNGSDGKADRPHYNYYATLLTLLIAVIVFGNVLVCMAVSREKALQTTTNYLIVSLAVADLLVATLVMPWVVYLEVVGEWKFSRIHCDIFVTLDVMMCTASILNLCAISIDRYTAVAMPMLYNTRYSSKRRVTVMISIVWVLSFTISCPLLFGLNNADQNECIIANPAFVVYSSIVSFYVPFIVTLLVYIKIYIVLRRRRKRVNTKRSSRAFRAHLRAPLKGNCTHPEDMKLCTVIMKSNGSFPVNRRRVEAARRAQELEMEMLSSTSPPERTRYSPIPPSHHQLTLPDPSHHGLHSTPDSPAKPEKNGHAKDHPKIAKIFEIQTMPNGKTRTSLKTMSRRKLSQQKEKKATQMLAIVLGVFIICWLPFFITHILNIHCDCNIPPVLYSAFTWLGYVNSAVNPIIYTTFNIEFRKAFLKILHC
Sequence of D(1A) dopamine receptor (P21728 whole entry): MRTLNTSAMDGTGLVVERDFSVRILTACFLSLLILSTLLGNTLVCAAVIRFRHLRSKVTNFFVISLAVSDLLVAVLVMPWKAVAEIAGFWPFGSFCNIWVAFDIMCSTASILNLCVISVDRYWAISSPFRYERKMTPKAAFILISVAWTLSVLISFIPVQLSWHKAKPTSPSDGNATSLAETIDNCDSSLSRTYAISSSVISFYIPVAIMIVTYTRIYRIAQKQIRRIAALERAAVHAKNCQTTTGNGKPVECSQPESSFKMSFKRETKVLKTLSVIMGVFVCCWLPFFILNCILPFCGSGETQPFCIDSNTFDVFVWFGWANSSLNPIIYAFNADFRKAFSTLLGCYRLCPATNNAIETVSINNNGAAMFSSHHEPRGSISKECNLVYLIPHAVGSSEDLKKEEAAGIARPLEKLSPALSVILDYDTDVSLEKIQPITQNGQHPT

Compound	Ki (D(1A) dopamine receptor) [nM]	Ki (D(2) dopamine receptor) [nM]	Kb [1] [nM]	pD2 [2]
CN1CCCc2c([nH]c3ccccc23)Cc2ccccc2CC1	158	115	3.8	–
COc1ccc2c(c1)CCN(C)CCc1ccccc1C2	22.9	–	2.04	–
CN1CCc2ccccc2Cc2[nH]c3ccccc3c2CC1	1.86	41.7	–	9.79
CN1CCc2ccccc2Cc2[nH]c3ccc(O)cc3c2CC1	–	43.7	–	9.97
CN1CCc2ccccc2Cc2ccc(O)cc2CC1	–	–	0.646	–
O=C(c1ccc(F)cc1)C1CCN(CCn2c(=O)[nH]c3ccccc3c2=O)CC1 [KETANSERIN]	–	–	1.32	–
CN1CCCc2ccccc2Cc2ccc(O)cc2CC1	2.67	41.7	2.14	–
CN1CCc2ccccc2Cc2ccc(O)c(Cl)c2CC1	0.813	3.55	0.891	–
COc1ccc2c(c1)CCN(C)CCCc1ccccc1C2	21.9	–	3.39	–
CN1CCCc2ccccc2Cc2[nH]c3ccccc3c2CC1	2.04	13.5	–	9.77
CCN1CCc2ccccc2Cc2ccc(O)cc2CC1	3.72	77.6	3.98	–
Oc1ccc2c(c1)CCNCCc1ccccc1C2	63.1	389	61.7	–
COc1ccc2c(c1)CCCN(C)CCc1ccccc1C2	28.2	24.5	5.75	–

— ChEMBL document CHEMBL1157471, “Dopamine/serotonin receptor ligands. Part 17: a cross-target SAR approach: affinities of azecine-styled ligands for 5-HT(2A) versus D1 and D2 receptors” (Bioorg Med Chem Lett, 2008)
